Laboratory results: ChEMBL document CHEMBL5465560, “Selectivity Literature for EUbOPEN Chemogenomic Library” (2024)
Values belong to the molecule of their own block, whether it stands above or below them.

Experiments:
[1] = target: T1, Peripheral plasma membrane protein CASK (Homo sapiens) (UniProt O14936); test: Selectivity interaction (KinomeScan (DiscoverX)) EUB0001049a CASK; details: at 1 µM
T1 sequence (whole entry): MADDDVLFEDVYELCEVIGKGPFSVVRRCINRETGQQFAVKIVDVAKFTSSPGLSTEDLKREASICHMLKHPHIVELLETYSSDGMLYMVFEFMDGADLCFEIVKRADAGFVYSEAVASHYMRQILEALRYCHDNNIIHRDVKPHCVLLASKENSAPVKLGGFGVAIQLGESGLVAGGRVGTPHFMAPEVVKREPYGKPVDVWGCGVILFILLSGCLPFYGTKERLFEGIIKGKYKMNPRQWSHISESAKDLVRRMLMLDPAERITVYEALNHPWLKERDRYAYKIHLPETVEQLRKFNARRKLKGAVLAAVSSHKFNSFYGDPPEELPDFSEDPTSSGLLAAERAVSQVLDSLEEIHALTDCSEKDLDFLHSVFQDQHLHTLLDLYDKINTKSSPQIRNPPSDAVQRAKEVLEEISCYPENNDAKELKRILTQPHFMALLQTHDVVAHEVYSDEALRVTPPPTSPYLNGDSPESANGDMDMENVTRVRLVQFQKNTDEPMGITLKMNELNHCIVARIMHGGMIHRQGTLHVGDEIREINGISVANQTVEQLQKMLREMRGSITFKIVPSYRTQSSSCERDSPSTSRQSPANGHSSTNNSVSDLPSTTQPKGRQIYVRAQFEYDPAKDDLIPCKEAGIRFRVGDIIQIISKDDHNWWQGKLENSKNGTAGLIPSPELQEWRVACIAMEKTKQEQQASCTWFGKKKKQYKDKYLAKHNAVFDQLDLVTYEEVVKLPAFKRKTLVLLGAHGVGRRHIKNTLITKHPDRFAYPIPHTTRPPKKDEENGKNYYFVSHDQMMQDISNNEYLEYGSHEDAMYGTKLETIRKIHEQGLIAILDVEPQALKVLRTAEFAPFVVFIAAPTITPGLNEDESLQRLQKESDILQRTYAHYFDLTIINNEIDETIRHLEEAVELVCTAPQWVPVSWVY

[2] = target: Protein kinase C delta type (Homo sapiens) (UniProt Q05655); test: Selectivity interaction (Upstate Kinase Profiler service (Millipore)) EUB0000056c PRKCD; details: at 1 µM
[3] = target: T2, Cytoplasmic tyrosine-protein kinase BMX (Homo sapiens) (UniProt P51813); test: Selectivity interaction (KinomeScan (DiscoverX)) EUB0000607a BMX; details: at 10 µM
T2 sequence (whole entry): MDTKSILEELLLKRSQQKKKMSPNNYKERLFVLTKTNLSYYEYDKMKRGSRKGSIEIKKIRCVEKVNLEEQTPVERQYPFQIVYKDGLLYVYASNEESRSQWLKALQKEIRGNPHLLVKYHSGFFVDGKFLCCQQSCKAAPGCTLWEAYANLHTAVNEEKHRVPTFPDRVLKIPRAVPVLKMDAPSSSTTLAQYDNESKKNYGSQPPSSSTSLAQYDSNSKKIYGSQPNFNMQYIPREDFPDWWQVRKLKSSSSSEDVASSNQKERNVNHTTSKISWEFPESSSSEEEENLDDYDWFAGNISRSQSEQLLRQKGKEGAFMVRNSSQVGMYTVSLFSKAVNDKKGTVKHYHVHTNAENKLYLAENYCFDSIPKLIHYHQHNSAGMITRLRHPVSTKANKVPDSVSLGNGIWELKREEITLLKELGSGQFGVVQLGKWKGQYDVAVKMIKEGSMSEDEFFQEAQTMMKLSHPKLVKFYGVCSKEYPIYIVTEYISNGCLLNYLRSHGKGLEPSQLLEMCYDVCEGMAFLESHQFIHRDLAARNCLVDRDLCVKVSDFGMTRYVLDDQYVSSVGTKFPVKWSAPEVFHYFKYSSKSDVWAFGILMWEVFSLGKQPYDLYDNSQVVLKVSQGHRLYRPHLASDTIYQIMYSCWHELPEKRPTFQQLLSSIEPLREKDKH

[4] = target: T3, Serine/threonine-protein kinase TAO2 (Homo sapiens) (UniProt Q9UL54); test: Selectivity interaction (Kinase panel (KiNativ target engagement assay in Jurkat cells)) EUB0001635a TAOK2; type: cell-based; details: Selectivity number of off-targets 0.0, Selectivity number of targets 233.0, Source Knowledge https://www.sciencedirect.com/science/article/pii/S2451945619300674?via%3Dihub, at 1 µM
T3 sequence (whole entry): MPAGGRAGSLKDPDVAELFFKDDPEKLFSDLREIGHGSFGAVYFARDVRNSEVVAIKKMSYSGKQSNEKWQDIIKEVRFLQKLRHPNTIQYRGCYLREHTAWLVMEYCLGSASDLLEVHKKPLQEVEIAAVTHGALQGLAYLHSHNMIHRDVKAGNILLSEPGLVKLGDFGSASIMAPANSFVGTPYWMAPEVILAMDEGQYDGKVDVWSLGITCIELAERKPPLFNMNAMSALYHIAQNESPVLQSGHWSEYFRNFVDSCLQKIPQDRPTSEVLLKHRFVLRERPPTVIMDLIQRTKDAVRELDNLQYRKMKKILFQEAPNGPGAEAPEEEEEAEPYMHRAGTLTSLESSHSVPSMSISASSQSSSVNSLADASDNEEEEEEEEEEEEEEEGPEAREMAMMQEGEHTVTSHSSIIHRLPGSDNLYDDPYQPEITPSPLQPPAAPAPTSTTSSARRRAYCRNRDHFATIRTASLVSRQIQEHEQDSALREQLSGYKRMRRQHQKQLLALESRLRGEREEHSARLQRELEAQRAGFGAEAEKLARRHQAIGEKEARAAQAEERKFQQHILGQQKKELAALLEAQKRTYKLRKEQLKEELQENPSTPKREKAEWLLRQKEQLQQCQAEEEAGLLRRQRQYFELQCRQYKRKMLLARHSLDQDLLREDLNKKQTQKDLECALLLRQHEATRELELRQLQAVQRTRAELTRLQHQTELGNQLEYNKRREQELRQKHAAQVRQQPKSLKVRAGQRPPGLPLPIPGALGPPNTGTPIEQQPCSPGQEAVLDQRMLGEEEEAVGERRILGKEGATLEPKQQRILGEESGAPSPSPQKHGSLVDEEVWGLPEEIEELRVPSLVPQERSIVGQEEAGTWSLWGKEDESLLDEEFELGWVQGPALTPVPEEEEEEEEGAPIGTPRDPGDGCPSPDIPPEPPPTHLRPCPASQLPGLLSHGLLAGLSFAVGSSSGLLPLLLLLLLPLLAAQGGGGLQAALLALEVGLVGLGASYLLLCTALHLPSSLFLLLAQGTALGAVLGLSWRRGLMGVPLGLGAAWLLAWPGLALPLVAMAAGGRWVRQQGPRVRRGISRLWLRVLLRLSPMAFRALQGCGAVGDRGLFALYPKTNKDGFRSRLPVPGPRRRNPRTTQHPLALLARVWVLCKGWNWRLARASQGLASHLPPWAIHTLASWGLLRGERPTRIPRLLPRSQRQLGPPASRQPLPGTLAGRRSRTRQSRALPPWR

Sequence of Protein kinase C delta type (Homo sapiens) (Q05655 whole entry, looked up): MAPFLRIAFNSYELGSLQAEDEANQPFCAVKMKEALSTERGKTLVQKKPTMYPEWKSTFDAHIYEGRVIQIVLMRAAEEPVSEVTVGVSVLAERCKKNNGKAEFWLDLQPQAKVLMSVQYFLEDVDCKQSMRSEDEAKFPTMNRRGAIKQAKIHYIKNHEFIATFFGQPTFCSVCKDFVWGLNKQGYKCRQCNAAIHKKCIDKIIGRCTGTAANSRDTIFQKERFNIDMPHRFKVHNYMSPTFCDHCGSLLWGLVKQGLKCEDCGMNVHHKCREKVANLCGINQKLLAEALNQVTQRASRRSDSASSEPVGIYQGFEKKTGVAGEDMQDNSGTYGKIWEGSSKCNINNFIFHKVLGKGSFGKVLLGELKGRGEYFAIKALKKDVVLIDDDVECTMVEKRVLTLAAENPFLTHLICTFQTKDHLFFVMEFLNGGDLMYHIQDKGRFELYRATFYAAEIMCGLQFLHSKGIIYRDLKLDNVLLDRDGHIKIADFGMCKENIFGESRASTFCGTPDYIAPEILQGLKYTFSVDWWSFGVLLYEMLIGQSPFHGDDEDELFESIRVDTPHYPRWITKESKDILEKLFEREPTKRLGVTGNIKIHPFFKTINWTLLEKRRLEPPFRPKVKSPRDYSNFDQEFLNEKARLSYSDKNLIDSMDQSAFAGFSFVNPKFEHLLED

SMILES: COc1cc(Nc2nc(C)cc(-c3cnn4nc(OC)ccc34)n2)cc(C(F)(F)F)c1
- % of control [1]: 65%

- % of inhibition [2]: 33%
SMILES: Cc1ccc(-c2ccc3c(ccc4sc5c(c43)NC[C@@H](C)NC5=O)n2)cn1

SMILES: CNC(=O)Nc1ccc(-c2nc(N3CC4CCC(C3)O4)c3cnn(C4CCC5(CC4)OCCO5)c3n2)cc1
- % of control [3]: 83%

SMILES: C=CC(=O)Nc1ccc(C(=O)Nc2[nH]nc3c2CN(C(=O)N[C@H](CN(C)C)c2ccccc2)C3(C)C)cc1
- % of engagement [4]: -12.9%
